Where two headings read alike, the source gives them in different places.
Tested on: HIV-1 (IIIB) in MT-4 cells
Experiment: MT-4 HIV assay
Assay type: cell-based
Conditions: Human immunodeficiency virus 1, MT4, 120 h
Outline: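 MT-4 cells infected with HIV-1 IIIB (1:250 stock dilution) were incubated with 1:3 serially diluted compounds in RPMI with 10% FBS for 5 days at 37 °C. Cell Titer Glo luminescence was the readout. Plates included mock-infected wells, no-drug wells and 5 uM AZT controls.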

[1] = HIV-1 (IIIB), MT-4 cells, 5 days, Cell Titer Glo, read-out: EC50

Row | SMILES | EC50 [1] [nM] | EC50 [nM]
1 | COC(=O)N[C@H](C(=O)NN(Cc1c(F)cc(-c2cn(C(F)F)cn2)cc1F)C[C@H](O)[C@H](Cc1ccc(-c2cnc(N3CC4CCC(C3)N4C3COC3)nc2)cc1)NC(=O)[C@@H](NC(=O)OC)C(C)(C)C(F)(F)F)C(C)(C)C [Example 190, methyl ((5S,8S,9S,14S)-11-(4-(1-(difluoromethyl)-1H-imidazol-4-yl)-2,6-difluorobenzyl)-9-hydroxy-15,15-dimethyl-8-(4-(2-(8-(oxetan-3-yl)-3,8-diazabicyclo[3.2.1]octan-3-yl)pyrimidin-5-yl)benzyl)-3,6,13-trioxo-5-(1,1,1-trifluoro-2-methylpropan-2-yl)-2-oxa-4,7,11,12-tetraazahexadecan-14-yl)carbamate] | 7.06 | 
2 | COC(=O)N[C@H](C(=O)N[C@@H](Cc1ccc(C#Cc2ccc(N3CC4CCC(C3)N4C(C)C)nc2)cc1)[C@@H](O)CN(Cc1c(F)cc(-c2cnn(C(F)F)c2)cc1F)NC(=O)[C@@H](NC(=O)OC)C(C)(C)C(F)(F)F)C(C)(C)C(F)(F)F [Example 166, Methyl ((5S,8S,9S,14S)-11-(4-(1-(difluoromethyl)-1H-pyrazol-4-yl)-2,6-difluorobenzyl)-16,16,16-trifluoro-9-hydroxy-8-(4-((6-(8-isopropyl-3,8-diazabicyclo[3.2.1]octan-3-yl)pyridin-3-yl)ethynyl)benzyl)-15,15-dimethyl-3,6,13-trioxo-5-(1,1,1-trifluoro-2-methylpropan-2-yl)-2-oxa-4,7,11,12-tetraazahexadecan-14-yl)carbamate] | 7.06 | 
3 | CCC(=O)N[C@H](C(=O)N[C@@H](Cc1ccc(-c2cnn(C(F)F)c2)cc1)[C@@H](O)CN(Cc1c(F)cc(-c2cnn(C(F)F)c2)cc1F)NC(=O)[C@@H](NC(=O)CC)C(C)(C)C(F)(F)F)C(C)(C)C(F)(F)F [Example 215, (S)—N-((2S,3S)-4-(1-(4-(1-(difluoromethyl)-1H-pyrazol-4-yl)-2,6-difluorobenzyl)-2-((S)-4,4,4-trifluoro-3,3-dimethyl-2-propionamidobutanoyl)hydrazinyl)-1-(4-(1-(difluoromethyl)-1H-pyrazol-4-yl)phenyl)-3-hydroxybutan-2-yl)-4,4,4-trifluoro-3,3-dimethyl-2-propionamidobutanamide] | 18.2 | 
4 | COC(=O)N[C@H](C(=O)N[C@@H](Cc1ccc(C#Cc2cnc(N3C[C@H]4C[C@@H]3CN4C3COC3)nc2)cc1)[C@@H](O)CN(Cc1c(F)cc(-c2ncccn2)cc1F)NC(=O)[C@@H](NC(=O)OC)C(C)(C)C(F)(F)F)C(C)(C)C(F)(F)F [Example 24, Methyl ((5S,8S,9S,14S)-11-(2,6-difluoro-4-(pyrimidin-2-yl)benzyl)-16,16,16-trifluoro-9-hydroxy-15,15-dimethyl-8-(4-((2-((1R,4R)-5-(oxetan-3-yl)-2,5-diazabicyclo[2.2.1]heptan-2-yl)pyrimidin-5-yl)ethynyl)benzyl)-3,6,13-trioxo-5-(1,1,1-trifluoro-2-methylpropan-2-yl)-2-oxa-4,7,11,12-tetraazahexadecan-14-yl)carbamate] |  | 3.82
5 | COC(=O)N[C@H](C(=O)N[C@@H](Cc1ccc(C#Cc2ccc(N3CC4CCC(C3)N4C3COC3)nc2)cc1)[C@@H](O)CN(Cc1c(F)cc(-c2ccn(C(F)F)n2)cc1F)NC(=O)[C@@H](NC(=O)OC1CC1)C(C)(C)C)C(C)(C)C(F)(F)F [Example 187, cyclopropyl ((5S,8S,9S,14S)-11-(4-(1-(difluoromethyl)-1H-pyrazol-3-yl)-2,6-difluorobenzyl)-9-hydroxy-15,15-dimethyl-8-(4-((6-(8-(oxetan-3-yl)-3,8-diazabicyclo[3.2.1]octan-3-yl)pyridin-3-yl)ethynyl)benzyl)-3,6,13-trioxo-5-(1,1,1-trifluoro-2-methylpropan-2-yl)-2-oxa-4,7,11,12-tetraazahexadecan-14-yl)carbamate] | 4.7 | 
